The NIST ThermoML archive (doi:10.1021/acs.jced.7b00106)
Several values for one entry are separate records, joined by “and”; a condition that tells them apart may be missing. Equal entries are not always repeated. Numbers after ± are expanded uncertainties.

Conditions: Hot wire method

FC(F)(F)/C=C/Cl [(E)-1-chloro-3,3,3-trifluoroprop-1-ene]
Conditions | thermal conductivity
401.56 K, 1795 kPa, Fluid (supercritical or subcritical phases) | 0.02087 ± 0.0047 W/m/K
401.57 K, 1795 kPa, Fluid (supercritical or subcritical phases) | 0.02094 ± 0.0044 W/m/K
401.58 K, 1514 kPa, Fluid (supercritical or subcritical phases) | 0.01985 ± 0.0017 W/m/K
401.58 K, 1515 kPa, Fluid (supercritical or subcritical phases) | 0.01989 ± 0.001 W/m/K
401.61 K, 1407 kPa, Fluid (supercritical or subcritical phases) | 0.01962 ± 0.0028 W/m/K
401.62 K, 1407 kPa, Fluid (supercritical or subcritical phases) | 0.01968 ± 0.0021 W/m/K
401.65 K, 1306 kPa, Fluid (supercritical or subcritical phases) | 0.01952 ± 0.00084 W/m/K
401.65 K, 1307 kPa, Fluid (supercritical or subcritical phases) | 0.01951 ± 0.00081 W/m/K
401.67 K, 1716 kPa, Fluid (supercritical or subcritical phases) | 0.02063 ± 0.006 W/m/K
401.69 K, 1203 kPa, Fluid (supercritical or subcritical phases) | 0.01937 ± 0.0014 W/m/K and 0.01933 ± 0.0018 W/m/K
401.71 K, 1106 kPa, Fluid (supercritical or subcritical phases) | 0.01926 ± 0.0029 W/m/K
401.72 K, 1106 kPa, Fluid (supercritical or subcritical phases) | 0.01925 ± 0.003 W/m/K
401.72 K, 1623 kPa, Fluid (supercritical or subcritical phases) | 0.0203 ± 0.0028 W/m/K
401.73 K, 1623 kPa, Fluid (supercritical or subcritical phases) | 0.02026 ± 0.0028 W/m/K
401.75 K, 847 kPa, Fluid (supercritical or subcritical phases) | 0.01914 ± 0.0014 W/m/K
401.75 K, 1000 kPa, Fluid (supercritical or subcritical phases) | 0.01916 ± 0.001 W/m/K
401.75 K, 1001 kPa, Fluid (supercritical or subcritical phases) | 0.01919 ± 0.001 W/m/K
401.76 K, 846 kPa, Fluid (supercritical or subcritical phases) | 0.01915 ± 0.001 W/m/K
401.76 K, 1795 kPa, Fluid (supercritical or subcritical phases) | 0.02102 ± 0.0052 W/m/K
401.76 K, 1796 kPa, Fluid (supercritical or subcritical phases) | 0.02099 ± 0.0052 W/m/K
401.78 K, 1514 kPa, Fluid (supercritical or subcritical phases) | 0.0199 ± 0.0027 W/m/K
401.79 K, 1515 kPa, Fluid (supercritical or subcritical phases) | 0.01993 ± 0.0026 W/m/K
401.82 K, 1408 kPa, Fluid (supercritical or subcritical phases) | 0.01967 ± 0.0031 W/m/K
401.83 K, 1407 kPa, Fluid (supercritical or subcritical phases) | 0.01973 ± 0.0021 W/m/K
401.84 K, 675 kPa, Fluid (supercritical or subcritical phases) | 0.01911 ± 0.003 W/m/K
401.86 K, 1307 kPa, Fluid (supercritical or subcritical phases) | 0.01952 ± 0.0024 W/m/K
401.87 K, 1716 kPa, Fluid (supercritical or subcritical phases) | 0.02077 ± 0.0057 W/m/K
401.88 K, 1715 kPa, Fluid (supercritical or subcritical phases) | 0.02074 ± 0.0056 W/m/K
401.91 K, 1202 kPa, Fluid (supercritical or subcritical phases) | 0.01943 ± 0.0018 W/m/K
401.91 K, 1203 kPa, Fluid (supercritical or subcritical phases) | 0.01941 ± 0.0018 W/m/K
401.93 K, 1622 kPa, Fluid (supercritical or subcritical phases) | 0.02034 ± 0.0033 W/m/K
401.94 K, 1105 kPa, Fluid (supercritical or subcritical phases) | 0.01929 ± 0.0015 W/m/K
401.94 K, 1106 kPa, Fluid (supercritical or subcritical phases) | 0.01933 ± 0.0015 W/m/K
401.94 K, 1624 kPa, Fluid (supercritical or subcritical phases) | 0.02037 ± 0.0036 W/m/K
401.96 K, 1796 kPa, Fluid (supercritical or subcritical phases) | 0.02117 ± 0.0056 W/m/K
401.97 K, 1000 kPa, Fluid (supercritical or subcritical phases) | 0.01921 ± 0.0017 W/m/K
401.97 K, 1001 kPa, Fluid (supercritical or subcritical phases) | 0.01922 ± 0.0013 W/m/K
401.97 K, 1796 kPa, Fluid (supercritical or subcritical phases) | 0.02115 ± 0.0074 W/m/K
401.99 K, 847 kPa, Fluid (supercritical or subcritical phases) | 0.01917 ± 0.002 W/m/K
402 K, 845 kPa, Fluid (supercritical or subcritical phases) | 0.01916 ± 0.001 W/m/K
402 K, 1514 kPa, Fluid (supercritical or subcritical phases) | 0.01998 ± 0.0041 W/m/K and 0.02002 ± 0.0041 W/m/K
402.04 K, 1407 kPa, Fluid (supercritical or subcritical phases) | 0.01972 ± 0.0032 W/m/K
402.04 K, 1408 kPa, Fluid (supercritical or subcritical phases) | 0.01978 ± 0.0031 W/m/K
402.07 K, 1716 kPa, Fluid (supercritical or subcritical phases) | 0.02086 ± 0.0052 W/m/K and 0.02091 ± 0.0052 W/m/K
402.09 K, 674 kPa, Fluid (supercritical or subcritical phases) | 0.0192 ± 0.0015 W/m/K
402.09 K, 1306 kPa, Fluid (supercritical or subcritical phases) | 0.01958 ± 0.0042 W/m/K
402.09 K, 1307 kPa, Fluid (supercritical or subcritical phases) | 0.01963 ± 0.0042 W/m/K
402.12 K, 33574 kPa, Liquid | 0.0762 ± 0.0032 W/m/K
402.13 K, 1203 kPa, Fluid (supercritical or subcritical phases) | 0.01947 ± 0.0017 W/m/K
402.14 K, 1203 kPa, Fluid (supercritical or subcritical phases) | 0.01946 ± 0.0017 W/m/K
402.15 K, 1623 kPa, Fluid (supercritical or subcritical phases) | 0.02048 ± 0.0047 W/m/K
402.17 K, 1105 kPa, Fluid (supercritical or subcritical phases) | 0.01933 ± 0.0025 W/m/K and 0.01934 ± 0.0025 W/m/K
402.19 K, 1796 kPa, Fluid (supercritical or subcritical phases) | 0.02136 ± 0.0069 W/m/K and 0.02138 ± 0.0076 W/m/K
402.2 K, 24990 kPa, Liquid | 0.07177 ± 0.0024 W/m/K
402.2 K, 25009 kPa, Liquid | 0.07171 ± 0.00081 W/m/K
402.21 K, 1000 kPa, Fluid (supercritical or subcritical phases) | 0.01925 ± 0.0012 W/m/K
402.22 K, 1851 kPa, Liquid | 0.05439 ± 0.0025 W/m/K
402.22 K, 1852 kPa, Liquid | 0.05442 ± 0.0017 W/m/K
402.23 K, 846 kPa, Fluid (supercritical or subcritical phases) | 0.01918 ± 0.0016 W/m/K
402.23 K, 1515 kPa, Fluid (supercritical or subcritical phases) | 0.02013 ± 0.0046 W/m/K and 0.02014 ± 0.0046 W/m/K
402.24 K, 847 kPa, Fluid (supercritical or subcritical phases) | 0.01925 ± 0.0016 W/m/K
402.25 K, 13371 kPa, Liquid | 0.06482 ± 0.004 W/m/K
402.26 K, 13368 kPa, Liquid | 0.06479 ± 0.0024 W/m/K
402.27 K, 1408 kPa, Fluid (supercritical or subcritical phases) | 0.01984 ± 0.0029 W/m/K and 0.01988 ± 0.0029 W/m/K
402.29 K, 21647 kPa, Liquid | 0.06986 ± 0.00079 W/m/K
402.29 K, 21648 kPa, Liquid | 0.06987 ± 0.00078 W/m/K
402.31 K, 1715 kPa, Fluid (supercritical or subcritical phases) | 0.02112 ± 0.0092 W/m/K and 0.02105 ± 0.0066 W/m/K
402.31 K, 28736 kPa, Liquid | 0.07366 ± 0.0013 W/m/K
402.31 K, 28755 kPa, Liquid | 0.0737 ± 0.0012 W/m/K
402.32 K, 5982 kPa, Liquid | 0.0589 ± 0.00075 W/m/K and 0.05892 ± 0.0011 W/m/K
402.32 K, 11080 kPa, Liquid | 0.06308 ± 0.0019 W/m/K
402.32 K, 11097 kPa, Liquid | 0.06313 ± 0.0013 W/m/K
402.33 K, 1306 kPa, Fluid (supercritical or subcritical phases) | 0.01962 ± 0.003 W/m/K and 0.01976 ± 0.003 W/m/K
